One series deals with PL^Pro (Severe acute respiratory syndrome coronavirus 2, UniProt P0DTD1). The following applies: read-out: PL^Pro IC50.
The next series has as its target M^Pro (Severe acute respiratory syndrome coronavirus 2, UniProt P0DTD1). In kind it is biochemical. The following applies: for Ki: read-out: M^Pro Ki(app), apparent; for fold less potent M^Pro inhibitor than alkyne parent: probes lacking the alkyne versus their parents; for M^Pro kinact/KI: second-order rate constant for enzyme inactivation.
A further series addresses Cathepsin B (Homo sapiens, UniProt P07858). Nature of the series: Cathepsin B inhibition. The settings on record: read-out: Cathepsin B IC50. In kind it is biochemical.
The next series concerns the target Cathepsin L (Homo sapiens, UniProt P07711). Briefly: Cathepsin L inhibition. In kind it is biochemical. The following applies: for IC50: read-out: Cathepsin L IC50.
Series [1] has as its system SARS-CoV2. The series is classed as cell-based. The following applies: for EC50: read-out: EC50 for the inhibition of SARS-CoV-2 infection.
A further series in a line: Cytotoxicity. In kind it is cell-based.
Another series concerns SARS-CoV2 pseudovirus. In kind it is cell-based.
In series [2] the test system is SARS-CoV2. In kind it is cell-based. The following applies: Huh7.5 cells, 2 μM, 24 h, MOI 0.05.
A further series concerns OC-43. Nature of the series: Inhibition of OC-43 in A549-hACE2 cells. In kind it is cell-based. The following applies: to a lesser extent than SARS-CoV2.
Series [3] has as its system SARS-CoV2. The series is classed as in vivo, K18-hACE2 transgenic mice. The following applies: for SARS-CoV2-induced weight loss and lethality: intranasal, 10 mg/kg once daily for 3 days starting 2 h prior to infection; for lung histopathology: intraperitoneal treatment for 5 days; for SARS-CoV-2-induced weight loss and lethality: intraperitoneal, 25 mg/kg twice daily for 5 days, post-infection; for viral RNA loads and titers in lung tissue: versus vehicle control, 72 h treatment.

Series [4] in a line: Weight loss in mock infected mice. The settings on record: mouse, in vivo.
The subject of a further series is SARS-CoV-2. In kind it is cell-based. The settings on record: relative to the DMSO control.
A short description of series [5]: Pharmacokinetics in BALB-6c mice. The following applies: for adverse events or signs of toxicity: at the tested doses.
For another series, the target named is CatL (Homo sapiens, UniProt P07711). The following applies: SM144 5 μM, 24 h, live A549-hACE2 cells.
Chain of CatL (P07711 114-333): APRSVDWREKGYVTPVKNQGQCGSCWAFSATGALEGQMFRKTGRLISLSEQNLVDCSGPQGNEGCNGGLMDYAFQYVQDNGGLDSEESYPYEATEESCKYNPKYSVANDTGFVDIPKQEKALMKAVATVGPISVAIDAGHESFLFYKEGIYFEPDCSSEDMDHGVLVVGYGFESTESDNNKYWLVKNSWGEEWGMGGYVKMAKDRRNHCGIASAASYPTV

Several values for one entry are separate records, joined by “and”; a condition that tells them apart may be missing. Equal values may be shown once. Read-outs that look alike come from different tables or passages of the source. Square brackets hold non-standard residues; d marks the D form. Peptide text beside a SMILES is read from it. * marks the point of attachment. Cit = NC(=O)NCCC[C@H](N)C(=O)O; CH2Cl = ClC*

Chain of Cathepsin L (P07711 114-333): as above

What is called IC50 is the midpoint of a concentration-inhibition curve. `C#CCOCCC(=O)NC(Cc1ccccc1)C(=O)NC(Cc1ccccc1)C(=O)NC(C=CC(=O)OCC)CC1CCNC1=O` (stereo not drawn) [SM145]: the IC50 at PL^Pro is > 50 µM; at Cathepsin B, > 50 µM; at Cathepsin L it was 0.2 ± 0.004 µM. For the same compound, the Ki on M^Pro is 5.3 ± 0.4 µM. The “Cathepsin L kinact/KI” value on Cathepsin L is reported as “(2.5 ± 0.01)×10^4 M^−1min^−1”. Moreover, the “antiviral activity compared with SM141 and SM142” value in the series with SARS-CoV2 [1] is given as “significantly lower antiviral activity”.
Turning to `NC(=O)NCCC[C@H](NC(=O)[C@H](Cc1ccccc1)NC(=O)[C@H](N)Cc1ccccc1)C(=O)CCl` [D-FFCit-CMK] (H-[dF]-Phe-[Cit]-CH2Cl), the IC50 on PL^Pro is > 50 µM. Moreover, the “fold less potent M^Pro inhibitor than alkyne parent” value at M^Pro is 4–5 fold.
Regarding `CCOC(=O)C=CC(CC1CCNC1=O)NC(=O)C(Cc1ccc(F)cc1)NC(=O)C(N)Cc1ccccc1` (stereo not drawn) [SM137], at M^Pro, the Ki stood at 50 ± 6 µM and the “M^Pro kinact/KI” value was “(1.8 ± 0.2)×10^3 M^−1min^−1”.
The term EC50 denotes the concentration giving half of the maximal effect. A word on the EC90: it is the point of the concentration-response curve where the effect stands at 90%. As usually defined, the Cmax is the highest concentration seen after dosing. The Tmax is the time from dosing to the highest level. `CCOC(=O)C=CC(CC1CCNC1=O)NC(=O)C(Cc1ccccc1)NC(=O)C(N)Cc1ccccc1` (stereo not drawn) [SM141]: the “concentration up to which no notable cytotoxicity is caused” value in “Cytotoxicity” was determined as 50000 nM. Also, the IC50 at PL^Pro was > 50 µM. Also, the “additional inhibition of pseudovirus entry in CatL knockdown cells” value in the series with SARS-CoV2 pseudovirus is on record as “did not show any significant additional inhibitory activity”. Also, the antiviral activity entry in the series on SARS-CoV2 [2] was “almost completely blocks viral infection”. For the same compound, at M^Pro, the Ki is 9 ± 1 µM and the “M^Pro kinact/KI” value is listed as “(2.0 ± 0.2)×10^4 M^−1min^−1”. The “inhibition of OC-43” value in the series on OC-43 is listed as “inhibits OC-43”. In the series on SARS-CoV2 [3], the “SARS-CoV2-induced weight loss and lethality” value is “protects mice from SARS-CoV2-induced weight loss and lethality”; the lung histopathology entry is “significant reduction in lung inflammation and improved overall lung pathology”; the “SARS-CoV-2-induced weight loss and lethality” value was “protects K18-ACE2 mice from SARS-CoV-2-induced weight loss and lethality”; the “viral RNA loads and titers in lung tissue” value is “remarkably lower”. The “weight loss in mock infected mice” value in series [4] is listed as “no significant weight loss”. Also, at Cathepsin B, the IC50 is > 50 µM. Moreover, on Cathepsin L, the “Cathepsin L kinact/KI” value is reported as “(1.9 ± 0.5)×10^5 M^−1min^−1” and the IC50 came out at 0.06 ± 0.001 µM. Further, at Cathepsin L (from IC50 and kinact/KI values), the “fold more potent for CatL inhibition than M^Pro” value is on record as 10 fold. Further, the “inhibition of live virus infection in CatL knockdown cells” value with SARS-CoV-2 is recorded as “do inhibit live virus infection”. For the same compound, the “fold by which the antiviral EC50 is lower than potency for M^Pro inhibition” value with SARS-CoV2 [1] is reported as “more than 100 fold”. Besides, the antiviral activity entry in the series on SARS-CoV2 [1] (A549-hACE2 cells, 2 μM, 24 h, MOI 0.05) is “almost completely blocks viral infection”. In addition, the EC50 in the series on SARS-CoV2 [1] (A549-hACE2 cells) stood at 0.0082 µM. Further, in the series with SARS-CoV2 [1] (read-out: EC90 for the inhibition of SARS-CoV-2 infection, A549-hACE2 cells), the EC90 was found to be 0.0221 µM. Also, in series [5] (IP), the “% Bioavailability” value is on record as 35.2%, the AUCINF_obs turned out to be 49620 ng·min/mL, the AUClast was 1.6 µM·h and the peak level (Cmax) was 2700 nM. In series [5] (IP), the T1/2 came out at 48 min and the Tmax is 8.4 min. In [5] (IV), the AUCINF_obs came to 42350 ng·min/mL, the AUClast was determined as 1.3 µM·h, the CI_Obs came to 71.5 mL/min/kg and the highest level (Cmax) was 3900 nM. Further, in series [5] (IV), the MRTINF_obs is 24 min, the T1/2 was 48 min, the Tmax was 4.8 min and the VSS_obs came to 1.6 L/kg. Besides, in [5] (PO), the “% Bioavailability” value was 5%, the AUCINF_obs worked out at 7325 ng·min/mL, the AUClast was 0.14 µM·h and the Cmax amounted to 200 nM. Moreover, in [5] (PO), the Tmax was found to be 48 min. Also, in series [5], the “adverse events or signs of toxicity” value is recorded as “no adverse events or signs of toxicity were observed”.
For the compound `CCOC(=O)C=CC(CC1CCNC1=O)NC(=O)C(Cc1ccccc1)NC(=O)C(Cc1ccccc1)NC(=O)OC(C)(C)C` (stereo not drawn) [SM140], the IC50 on PL^Pro and on Cathepsin B was > 50 µM throughout. Moreover, the Ki on M^Pro turned out to be 16 ± 2 µM. The “M^Pro kinact/KI” value at M^Pro was “(9.0 ± 0.2)×10^3 M^−1min^−1”.
For `CCOC(=O)C=CC(CC1CCNC1=O)NC(=O)C(Cc1ccccc1)NC(=O)C(Cc1ccc(F)cc1)NC(=O)OC(C)(C)C` (stereo not drawn) [SM142], the IC50 on PL^Pro was > 50 µM. In addition, the “additional inhibition of pseudovirus entry in CatL knockdown cells” value in the series with SARS-CoV2 pseudovirus is recorded as “did not show any significant additional inhibitory activity”. Moreover, on M^Pro, the Ki is 10 ± 1 µM and the “M^Pro kinact/KI” value was “(1.1 ± 0.3)×10^4 M^−1min^−1”. Also, in the series on OC-43, the “inhibition of OC-43” value was “inhibits OC-43”. In addition, in the series with SARS-CoV2 [3], the “SARS-CoV2-induced weight loss and lethality” value was “protects mice from SARS-CoV2-induced weight loss and lethality”; the lung histopathology entry was “significant reduction in lung inflammation and improved overall lung pathology”; the “SARS-CoV-2-induced weight loss and lethality” value is “protects K18-ACE2 mice from SARS-CoV-2-induced weight loss and lethality”; the “viral RNA loads and titers in lung tissue” value is on record as “remarkably lower”. The “weight loss in mock infected mice” value in [4] is listed as “no significant weight loss”. In addition, the IC50 at Cathepsin B is 40 ± 9 µM. Besides, at Cathepsin L, the “Cathepsin L kinact/KI” value is listed as “(1.1 ± 0.01)×10^5 M^−1min^−1” and the IC50 came out at 0.145 ± 0.014 µM. In addition, the “inhibition of live virus infection in CatL knockdown cells” value with SARS-CoV-2 was “do inhibit live virus infection”. In addition, in the series on SARS-CoV2 [1], the “fold by which the antiviral EC50 is lower than potency for M^Pro inhibition” value is “more than 100 fold”. Further, the EC50 in the series on SARS-CoV2 [1] (A549-hACE2 cells) was 0.0147 µM. In [5] (IV), the AUCINF_obs amounted to 18490 ng·min/mL, the AUClast worked out at 0.4 µM·h, the CI_Obs stood at 169 mL/min/kg and the Cmax came to 400 nM. Besides, in [5] (IV), the MRTINF_obs is 114 min, the T1/2 was found to be 126 min, the Tmax stood at 4.8 min and the VSS_obs amounted to 13.2 L/kg. In series [5] (PO), the “% Bioavailability” value is 38% and 37.5%; the AUCINF_obs was 20843 ng·min/mL; the AUClast was 0.5 µM·h; the Cmax was 600 nM. Further, in series [5] (PO), the T1/2 is 126 min and the Tmax is 4.8 min. The “adverse events or signs of toxicity” value in [5] is recorded as “no adverse events or signs of toxicity were observed”. Further, in series [5] (calculated), the volume of distribution is recorded as 13 L/kg.
For `C#CCOCCC(=O)NC(Cc1ccc(F)cc1)C(=O)NC(Cc1ccccc1)C(=O)NC(C=CC(=O)OCC)CC1CCNC1=O` (stereo not drawn) [SM144], the “enrichment of CatL” value at CatL was > 128 fold. The IC50 on PL^Pro is > 50 µM. Further, at M^Pro, the Ki is 4.5 ± 0.5 µM and the “M^Pro kinact/KI” value is reported as “(3.4 ± 0.1)×10^4 M^−1min^−1”. Besides, the IC50 on Cathepsin B is > 50 µM. Further, at Cathepsin L, the “Cathepsin L kinact/KI” value was “(6 ± 0.2)×10^4 M^−1min^−1” and the IC50 worked out at 0.22 ± 0.026 µM. Moreover, in the series on SARS-CoV2 [1], the “antiviral activity compared with SM141 and SM142” value is listed as “significantly lower antiviral activity”.
Regarding `N=C(N)NCCC[C@H](NC(=O)[C@H](Cc1ccccc1)NC(=O)[C@H](N)Cc1ccccc1)C(=O)CCl` [D-FFR-CMK] (H-[dF]-Phe-Arg-CH2Cl), the IC50 on PL^Pro turned out to be 5 ± 0.3 µM. Moreover, the “fold less potent M^Pro inhibitor than alkyne parent” value on M^Pro is 4–5 fold.
Consider `CCOC(=O)C=CC(CC1CCNC1=O)NC(=O)C(Cc1ccc(F)cc1)NC(=O)C(Cc1ccccc1)NC(=O)OC(C)(C)C` (stereo not drawn) [SM136], for which, at M^Pro, the Ki was 73 ± 4 µM and the “M^Pro kinact/KI” value is “(7.7 ± 0.3)×10^2 M^−1min^−1”.

These data come from publication PMC9662648 (Journal of the American Chemical Society, 2022).
